According to a melting point compilation (Tetko et al.; mined from patent text by program, amines drawn as free bases though some values may be those of a salt):

| SMILES | melting point [°C] |
| --- | --- |
| Cn1c(=O)n(C(=O)OC(C)(C)C)c2ccc(Br)cc21 | 98 to 99 |
| CCOC(=O)c1cc(C(=O)OCC)c2c(Cl)cc(Cl)cc2n1 | 104 to 106 |
| COc1ccc(C(=O)c2ccc(OCc3nc(-c4cccc(OS(C)(=O)=O)c4)oc3C)cc2)c(OC(C)(C)C(=O)O)c1 | 182 to 183 |
| CCC(C)(O)c1cc(NC(=O)N2CCN(c3cc(OC)cc(OC)c3)CC2)c(OC)nc1C (stereo not given) | 127 to 129 |
| CC(C)C[C@H](NC(=O)OC(C)(C)C)[C@@H](O)C[C@H](c1ccccc1)C(C)C | 95 to 96 |
| CC(C)(C)OC(=O)NCCNC(=O)c1cc(Br)ccn1 | 134 |
| Nc1ncnc2c1ncn2[C@H]1CO[C@@H](CO)C1 | 183 to 185 |
| CCOC(=O)N1CCCOc2cc(N)ccc21 | 140 to 143 |
| CCc1ccccc1Sc1c(O)cc(-c2ccccc2)oc1=O | 190 to 192 |
| CCOC(=O)NCCC(c1cc(F)ccc1F)S(=O)(=O)c1ccc(Cl)cc1 (stereo not given) | 121 to 122 |
| Clc1ccc(Cn2cnc3ccc(Cl)nc32)c(Cl)c1 | 149 to 150 |
| Nc1nc(Cl)nc2c1ncn2C1OC(CO)C(O)C1F (stereo not given) | 225 to 226 |
| CCc1cc2c(s1)-n1c(C)nnc1C(CC(=O)O)N=C2c1ccc(Cl)cc1 (stereo not given) | 198 to 202 |
| CCOC(=O)C(=O)c1c[nH]c2cc(OC)ccc12 | 207 to 208 |
| O=C1CN2CCOC2(c2ccccc2F)c2cc(Cl)ccc2N1CCO (stereo not given) | 141 to 146 |
| O=c1ccn(-c2cc3[nH]c(=O)c(=O)[nH]c3cc2[N+](=O)[O-])cc1 | > 300 |
| CC(=O)Nc1cc(OCc2ccc3c(c2)OCO3)c(C(=O)CCCCCl)cc1Cl | 108 to 110 |
| COc1cccc(C(F)(F)F)c1C(N)=O | 178 to 181 |
| NNC(=O)c1ccc(C(=O)O)cc1 | 235 to 236 |
| CCCC(Oc1ccccc1)C(=O)NCCO[N+](=O)[O-] (stereo not given) | 68 to 70 |
| C1=C(c2ccc3c(c2)OCO3)CCC2(C1)OCCO2 | 75 to 76 |
| NC1=C(N=O)C(=O)N2CCN=C2N1Cc1ccc(F)cc1 | 248 to 250 |
| OCC1OC(n2cnc3c(NCC(c4ccccc4)c4ccc(Cl)cc4)ncnc32)C(O)C1O (stereo not given) | 89 to 95 |
| CNc1cc(Cl)c(C=O)c(Cl)c1 | 172 to 174 |
| CCc1c(-c2ccc(OCc3ccccc3)cc2)c2ccc3ccc(CO)c1n32 | 99 to 102 |

| SMILES | melting point [°C] |
| --- | --- |
| COc1ccc(-c2nn(C3CCCC3)c3c(C(F)(F)F)cccc23)c(OC)c1 | 79 to 80 |
| CCCNC(=O)c1nc(-c2ccccc2)c(-c2ccc(=O)[nH]n2)s1 | 232 to 233 |
| CCc1nc(-c2ccc(F)cc2)c(-c2ccc(S(C)(=O)=O)cc2)s1 | 156 to 157 |
| COc1cccc2c1CN(Nc1ccncc1)CC2 | 170 to 171 |
| CCCCN(C)C(=O)CS(=O)CCCCCCOc1ccc(C2=C(c3ccccc3)CCCc3cc(O)ccc32)cc1 (stereo not given) | 72 to 73 |
| COC1(C)Oc2cccc(O)c2O1 (stereo not given) | 106 to 109 |
| Nc1c(Br)cccc1CS(=O)(=O)c1ccccc1 | 174 to 177 |
| CCNc1c(C(=O)OCC)c(C)nc2scnc12 | 53 to 54 |
| CCCCN(CCCC)c1ccc(C=CC2=C(C#N)C(=C(C#N)C#N)OC2(c2ccccc2)C(F)(F)F)c(OC)c1 (stereo not given) | 191 to 194 |
| CCOC(=O)C1CN(C)c2nc(Cl)ncc2C1=O (stereo not given) | 175 |
| COCCCc1cc(Cl)cc2nc(Cc3ccccc3Cl)oc12 | 49 to 51 |
| CN(C)c1ccc(Cl)cc1[N+](=O)[O-] | 54 to 55 |
| NC(=NN=Cc1c(Cl)cccc1Cl)Nc1c(Cl)cccc1Cl | 230 to 231 |
| CCCC[C@H](NC(=O)[C@H](CCC(=O)OC(C)(C)C)NC(=O)OCc1ccccc1)C(=O)CSCc1ccco1 | 78 to 79 |
| CCOC(=O)COc1ccc(S(=O)CCNS(=O)(=O)c2ccccc2)cc1 (stereo not given) | 116 to 118 |
| O=C(Cc1noc2ccccc12)NS(=O)(=O)C1CC1 | 147 to 148 |
| N#CCCN1C(=O)C(O)(c2cccc(Cl)c2)c2ccccc21 (stereo not given) | 149 to 150 |
| Cc1c(Cc2cccc(C(F)(F)F)c2)oc2c(-c3cccc(C(=O)NCCS(C)=O)c3)cccc12 (stereo not given) | 146 to 147 |
| O=C1c2ccccc2C(=O)N1c1c(F)cc(Cl)c2c1CCCO2 | 198 to 200 |
| Cc1cc(-c2cccc(NC(=O)N[C@@H]3c4cc(C#N)ccc4OC(C)(C)[C@H]3O)c2)n(C)n1 | 142 to 152 |
| CC(=O)c1nn(-c2c(Cl)cc(C(F)(F)F)cc2Cl)c(N)c1S(=O)(=O)c1ccc(Cl)cc1 | 158 |
| O=c1[nH]c2ccccc2n1C1=CCN(C2CCC(c3ccc(F)cc3)(c3ccc(F)cc3)CC2)CC1 | 235 to 238 |
| COc1ccc(N2N=C3c4ccccc4SCCC3CC2=O)cc1 (stereo not given) | 143 to 145 |
| COc1ccc(N2CCN(CCn3c(=O)[nH]c4sccc4c3=O)CC2)cc1 | 249 to 251 |
| Cc1cc(-c2ccc(C(F)(F)F)nc2)cc(-c2cccc(-c3ccc(S(N)(=O)=O)s3)c2)n1 | 231 to 233 |

| SMILES | melting point [°C] |
| --- | --- |
| Cc1sc(-c2ccc(OC(F)(F)F)cc2)cc1-c1nc(-c2c(F)cccc2Cl)nn1C | 153 to 155 |
| COc1cccc(OC)c1CNC(=O)c1ccc2cnccc2n1 | 169 to 171 |
| CC(C)c1nc2cc(COc3ccc(C=C4SC(=O)NC4=O)cc3)ccc2o1 | 219 to 221 |
| Cc1cc(N2CCC[C@H]2COc2ccc(CC3SC(=O)NC3=O)cc2)nc2ccccc12 (stereo not given in full) | 95 to 97 |
| COc1cc2ncnc(N3CCc4cc(C)ccc43)c2cc1OC | 180 to 181 |
| Nc1nc2ccc(C(=C(Cl)Cl)c3ccccc3)cc2n1N1C=CC=CS1 | 214 to 217 |
| Cn1nnc2sccc2c1=O | 104 to 108 |
| Nc1cccc(S(=O)(=O)NCc2ccccn2)c1 | 124 |
| CCOC(=O)c1cc2nc(C)n(Cc3ccccc3)c2[nH]1 | 193 |
| Cc1cccc(-c2nc3cccnn3c2-c2ccnc(Nc3ccccc3C)c2)c1 | 208 to 209 |
| COC(=O)c1nc(Br)cc(N=[N+]=[N-])c1Cl | 84 to 86 |
| COc1ccc(Br)c2c1C[C@H](N(Cc1ccccc1)Cc1ccccc1)CC2 | 100 to 101 |
| Cc1nnc2ccc(-c3ccccc3Cl)nn12 | 146 to 148 |
| CCCNc1ncnc2c1ncn2CCCN1CCN(c2ccccc2)CC1 | 67 to 68 |
| COCCN1CCc2ccc(Nc3ncc(Cl)c(Nc4ccccc4C(=O)NC4CC4)n3)cc2CC1 | 165 to 180 |
| O=C(NN=Cc1c(O)ccc2ccccc12)c1cc2ccccc2cc1O | > 300 |
| CCCc1nc(N)c(C(=O)OC)[nH]1 | 133 to 136 |
| O=C1C(c2nc3c(cc2O)OCO3)c2ccccc2N1Cc1ccc(C(F)(F)F)o1 (stereo not given) | 161 to 163 |
| CCN(CC)c1ccc2nc3c4ccccc4c(=Nc4ccccn4)cc-3oc2c1 | 169 to 170 |
| CC(C)Cn1c(CCCCNC(=O)Nc2ccccc2)nc2c(N)nc3ccccc3c21 | 113 to 115 |
| O=C(Oc1ccccc1)c1ccc(-c2ccccc2)cc1 | 146 to 149 |
| O=[N+]([O-])c1ccc(O)c(Cn2c(=S)sc3ccccc32)c1 | 231 |
| CC(C)(C)c1ccc(C(=O)Nc2cn3cc(-n4cncn4)ccc3n2)cc1 | 274 to 276 |
| CC(=O)Nc1ccc2c3c(cccc13)CC2 | 180 to 186 |
| CC(=CC(=O)Nc1ccc(C(=O)O)cc1)c1cc(C(C)C)c(C(C)C)o1 | 232 to 235 |

| SMILES | melting point [°C] |
| --- | --- |
| NCCc1cccc(N2C(=O)N(c3ccccc3Br)Cc3cnc(Nc4ccccc4)nc32)c1 | 130 |
| CC(C(=O)O)c1ccc(-c2ccccc2F)c(O)c1 (stereo not given) | 110 to 111 |
| COC(=O)c1c(Oc2ccccc2N)c2ccccc2n1C | 103 to 105 |
| CC(=O)NC[C@H]1CN(c2ccc(N3CCN(C(=O)CCC(=O)c4ccc(CN(C)C)cc4)CC3)c(F)c2)C(=O)O1 | 190 to 192 |
| [N-]=[N+]=NS(=O)(=O)c1ccc(C(=O)Cl)cc1 | 68 |
| CS(=O)(=O)c1ccc(-c2cnn(-c3cccc(Cl)c3)c(=O)c2SCc2ccccc2)cc1 | 142 to 145 |
| Cc1cccnc1Cn1nnc2ccccc21 | 175 to 177 |
| COc1cc(C)nc2c(OCc3c(Cl)ccc(N)c3Cl)cccc12 | > 250 |
| CN1CC=C(c2c[nH]c3ccc(C[C@H]4COC(=O)N4)cc23)CC1 | 225 to 227 |
| Nc1cc(S(=O)(=O)CCO)ccc1Nc1ccc(N)c(S(=O)(=O)O)c1 | 254 |
| CC(C)=CCC/C(C)=C/CC/C(C)=C/CC/C(C)=C/CON1C(=O)c2ccccc2C1=O | 40 to 41 |
| CC(C)CCOc1ccc(-c2c(Cl)c(CCl)nc3sc4c(c23)CCN(Cc2ccccc2)C4)cc1 | 149 to 150 |
| O=C1CC(NCCCOc2cccc(CN3CCCCC3)c2)=Nc2ccccc21 | 171 to 172 |
| CCOC(=O)COc1ccc(-c2ccc(Cl)c(C(=O)NCC34CC5CC(CC(C5)C3)C4)c2)cc1 | 136 to 140 |
| O=C1NC(=O)c2c1c(O)nc1cc(Cl)c(Cl)cc21 | > 350 |
| COc1ccc(-c2nnc(C(=O)N3CC(Oc4ccc(CN5CCC(C)(CO)CC5)cc4)C3)o2)cc1 | 102 |
| Cc1cc(C(=O)O)c(S(N)(=O)=O)s1 | 198 |
| CCCN1N=C2C(=Cc3ccc(Cl)cc3)CSCC2C1c1ccc(Cl)cc1 (stereo not given) | 118 to 122 |
| [N-]=[N+]=NCc1ccc2c(NC(=O)c3ccccc3)nccc2c1 | 125 to 129 |
| CC(=O)N[C@H]1C[C@@H](c2cc(NC(=O)Cc3cccc4ccccc34)n[nH]2)C1 | 209 |
| CCOC(=O)c1cn2c3c(c(F)c(F)c(N)c3c1=O)CCN2C | 255 to 257 |
| Cc1cccc(-c2[nH]c(C(C)C)nc2-c2ccc(F)c(-c3c[nH]cn3)c2)n1 | 268 to 270 |
| CNC(=S)C1=CC(CF)(CF)Oc2ccc([N+](=O)[O-])cc21 | 134 to 135 |
| CCc1nn2c(c1Oc1cc(Cl)cc(Cl)c1)C(=O)NCC2 | 220 to 223 |
| CCCCCCC(C(=O)O)n1cnc(NC(=O)C2(O)c3ccccc3-c3ccccc32)c1 (stereo not given) | 128 |
